Test system: healthy subjects
Experiment: Ventilation, safety and pharmacokinetics in human volunteers, single-rising dose IV infusion
Assay type: in vivo
Procedure: A randomized, double-blind, placebo-controlled nine-period single-rising dose study in three alternating cohorts of healthy subjects was conducted at a single center in conformance with Good Clinical Practice. Compound (XXXVI) was synthesized according to Good Manufacturing Practice. Three (3) Cohorts of ten subjects each were randomized to treatment in a ratio of 4:1 (8 treated, 2 placebo) in a rotating panel design. Subjects in the first cohort participated in dosing periods 1, 4, and 7, with the second cohort participating in dosing periods 2, 5, and 8, and third cohort participating in dosing period 3, 6, and 9. The subjects who received placebo in their first dosing period also received placebo in their second and third dosing periods. Similarly, drug-treated subjects received drug all three dosing periods. In the first Cohort, on the first dose only, 2 subjects were dosed on Day 1 with one subject receiving active drug and one subject receiving placebo. Following a review of available safety and tolerability data (excluding PK), the remainder of Cohort 1 was dosed the following day. Subjects were dosed as detailed in Table 11 with a minimum of 1-week washout between doses.
Subjects could be screened up to 28 days before the treatment period. On the evening before dosing, subjects were admitted to the clinical site and baseline evaluations were conducted. After an overnight fast, subjects received an intravenous infusion of Compound (XXXVI) or placebo then PD, PK, and safety evaluations were conducted during the next 24 hours. Cohort 1 was enrolled to the lowest dose group and randomized to Compound (XXXVI) or placebo. Safety and tolerability evaluations for each dose included all safety assessments obtained through approximately 24 hours post-dose.
Pharmacodynamic endpoints were assessed by two independent systems consisting of Dräger Infinity patient monitoring system and a portable NOX-T3 respiratory monitoring system. The Dräger system is an inpatient intensive care/postoperative monitoring system used to monitor minute ventilation, respiratory rate (RR), tidal volume (VT) via a pneumotachometer (Capnostat sensor), transcutaneous oxygen hemoglobin saturation (SpO2), and end tidal carbon dioxide (ETCO2) (Capnostat sensor). NOX/T3 is a portable monitoring device used for home diagnostic sleep apnea assessments. In this study, NOX device monitored RR, VT via respiratory inductance plethysmography (RIP), SpO2 (Nonin), actigraphy, nasal air flow, and audio recording of the dosing session. In addition to monitoring pharmacodynamic effects, the Dräger system was also used to monitor subject real-time safety. Standard safety assessments were measured repeatedly throughout the dosing session, and consisted of vital signs (BP, HR, RR, temperature (oral)), Ramsay Sedation Scale (RSS), and pulmonary function testing.
Test Product, Dose, Mode of Administration, Batch and Lot No(s): Compound (XXXVI) was prepared as a sterile product for injection ready for dilution in normal saline and administration by infusion. Doses were based on the subject's weight on a milligram per kilogram basis and were administered over a 1-, 2-, 3- or 4-hour infusion as described in Table 11. Compound (XXXVI) (Batch No. 04110511) was provided by the Sponsor as a 50 mL fill of 10 mg/mL solution (GAL-021 freebase) in 20 mM citrate for IV Injection; Saline was sourced by the Investigator from Baxter, Lot 11F03E7L.
Thirty (30) subjects received single IV infusions over 1, 2, 3, or 4 hours on the first day of each of 3 periods for a total of 3 dosing days per subject. Per protocol, there was to be a minimum one week washout between doses of Compound (XXXVI) for all subjects. Actual washout periods ranged from 9 to 20 days overall.
Pharmacodynamic (PD) evaluations included tidal volume, respiratory rate, minute ventilation, end-tidal CO2, and transcutaneous hemoglobin oxygen saturation (SpO2). […]

[1] = IV infusion 0.102 to 2.16 mg/kg, 1 to 4 hours

CCCNc1nc(NCCC)nc(N(C)OC)n1.O=S(=O)(O)O [XXXVI, N-(4,6-Bis-n-propylamino-[1,3,5]triazin-2-yl)-N,O-dimethyl-hydroxylamine hydrogen sulfate]
increase in tidal volume (0.016 mg/kg dose (so in the source)): < 10%
minute ventilation (0.016 mg/kg/min x 1 hour): stimulated minute ventilation
safety and tolerability (0.102-2.16 mg/kg IV, durations 1 to 4 hours): generally safe and well tolerated
dose proportionality of concentration at 1 hour and AUC [1]: dose proportional
pharmacokinetic behaviour [1]: well-behaved pharmacokinetically
change in respiratory rate (all doses): < 10%
increase in minute ventilation (highest infusion rate (0.016 mg/kg/min x 1 hour), first 2 hours after start of infusion): ~27%

Reference: patent US9162992B2, “Compounds and compositions for treatment of breathing control disorders or diseases” (GALLEON PHARMACEUTICALS, INC., priority 2010, dated 2015)
